Earlier results on two compounds are cited in patent US8815815B2, “Methods for producing phytoextracts from vegetation waters and olive oil pomaces and compositions obtained thereby” (Phenofarm S.r.l., priority 2011, dated 2014).

Molecules are shown by their SMILES. In brackets after ≈: the same amount, converted by molar mass.

The subject of data set [1] is P-388 murine leukaemia cells.
The test system of data set [2] is PC12 neuronal cell culture. Conditions: 1-methyl-4-phenylpyridine (MPP+) ion.
Another data set has as its system neutrophils. Conditions: in vitro.

On to `C[C@@H]1O[C@@H](O[C@@H]2[C@@H](O)[C@H](OCCc3ccc(O)c(O)c3)O[C@H](COC(=O)/C=C/c3ccc(O)c(O)c3)[C@H]2O)[C@H](O)[C@H](O)[C@H]1O` [isoacteoside], for which the ED50 cytotoxic action in data set [1] is 10 µg/mL (≈ 16 µM).
With `C[C@@H]1O[C@@H](O[C@@H]2[C@@H](O)[C@H](OCCc3ccc(O)c(O)c3)O[C@H](CO)[C@H]2OC(=O)/C=C/c2ccc(O)c(O)c2)[C@H](O)[C@H](O)[C@H]1O` [verbascoside], the ED50 cytotoxic action in data set [1] is 26 µg/mL (≈ 41.6 µM). Further, in data set [2], the “protection activity against neurotoxicity induced by MPP+” value is “protection activity against neurotoxicity”. Besides, the “chemotactic activity of neutrophils” value with neutrophils was “increasing the chemotactic activity of neutrophils”.
